Source: patent publication US20260373138A1, “COMPOUNDS WITH ANTIFUNGAL PROPERTIES” (priority 2023, published 2026)

Tested on: A. fumigatus CEA10 reference strain
Assay: Fluconazole potentiator screen: MIC by CLSI microbroth dilution with and without fluconazole
Type: cell-based, Aspergillus fumigatus
Settings: for MIC: Aspergillus fumigatus, read-out: MIC (ug/mL) (−) Fluc; for MIC / MIC (ug/mL) (+) Fluc: 18 h; for MIC (ug/mL) (+) Fluc: with 32 μg/ml fluconazole, normoxia, GMM, 37 °C; for potency / potentiation of fluconazole (in words): structure-activity statements, fluconazole potentiator screen

Structure (SMILES)	MIC [µg/mL]	MIC (ug/mL) (+) Fluc [µg/mL]	potency / potentiation of fluconazole (in words)	increase in potentiation of fluconazole (morpholine series, para-fluorophenyl substitution) [fold]	loss in potentiating the fluconazole (analogs of MBX-7591)
O=C(c1ccc(O)cc1)N1CCC(Cc2ccc(COc3ccncc3)cc2)CC1 [MBX-7802]	> 16	>16			
O=S(=O)(c1ccoc1)N1CCC2(CC1)CC(CCOc1ccncc1)CCO2 (stereo not drawn) [MBX-7875]	> 16	8.00			
COC(=O)c1ccc(C(=O)N2CCC(Cc3ccc(COc4ccncc4)cc3)CC2)cc1 [MBX-8093]	> 22	>20			
O=S(=O)(c1cccc(Cl)c1)N1CCC2(CC1)CC(CCOc1ccncc1)CCO2 (stereo not drawn) [MBX-7872]	> 18	6.38			
Cn1nccc1S(=O)(=O)N1CCC2(CC1)CC(CCOc1ccncc1)CCO2 (stereo not drawn) [MBX-7914]	8.34	3.31			
O=S(=O)(c1cccc(F)c1)N1CCN(Cc2ccc(CN3CCOCC3)cc2)CC1 [MBX-8189]	> 21	>21			
N#Cc1ccc(C(=O)N2CCC(Cc3ccc(COc4ccncc4)cc3)CC2)cc1 [MBX-8088]	6.5	14.50	antagonistic effect		
O=C(c1ccc(F)cc1)N1CCC(Cc2ccc(COc3ccncc3)cc2)CC1 [MBX-7706]	1.01	8.09	antagonistic effect		
O=S(=O)(c1cccs1)N1CCC2(CC1)C[C@H](CCOc1ccncc1)CCO2 [MBX-8250]	2.64	0.52			
O=C(c1ccsc1)N1CCN(Cc2ccc(COc3ccncc3)cc2)CC1 [MBX-8030]	1.9	0.50			
O=C(c1ccsc1)N1CCC(Cc2ccc(Oc3ccncc3)cc2)CC1 [MBX-8025]	> 37	>37	not optimal for potentiation of fluconazole		
NCc1ccc(OCc2ccc(CC3CCN(C(=O)c4ccsc4)CC3)cc2)cc1 [MBX-8220]	> 21	>21			
O=C(c1cccc(Cl)c1)N1CCC(Cc2ccc(COc3ccncc3)cc2)CC1 [MBX-8092]	21	>21			
O=S(=O)(c1ccc(F)cc1)N1CCC(Cc2ccc(CN3CCOCC3)cc2)CC1 [MBX-8145]	0.3	0.08		6	
O=C(c1ccc(Cl)s1)N1CCC(Cc2ccc(COc3ccncc3)cc2)CC1 [MBX-8095]	6.7	3.80			more than 4 fold
COc1ccc(C(=O)N2CCC(Cc3ccc(COc4ccncc4)cc3)CC2)cc1 [MBX-7728]	8.3	8.30			
CC(c1ccsc1)N1CCC(Cc2ccc(COc3ccncc3)cc2)CC1 (stereo not drawn) [MBX-7821]	> 15	>15			
O=C(c1ccc2c(c1)OCCO2)N1CCC(Cc2ccc(COc3ccncc3)cc2)CC1 [MBX-7772]	12.6	12.60			
O=C(c1c[nH]cn1)N1CCC(Cc2ccc(COc3ccncc3)cc2)CC1 [MBX-7804]	> 15	>15	not tolerated		
O=C(c1ccncc1)N1CCC(Cc2ccc(COc3ccncc3)cc2)CC1 [MBX-7731]	7.7	7.70	did not result in appreciable increase in potency		
O=C(c1ccsc1)N1CCC(Cc2ccc(COc3cncnc3)cc2)CC1 [MBX-8033]	39	27.00	complete loss of activity		
O=C(c1csc(Cl)c1)N1CCN(Cc2ccc(CN3CCOCC3)cc2)CC1 [MBX-8249]	> 21	21.00			

Structure (SMILES)	MIC [µg/mL]	MIC (ug/mL) (+) Fluc [µg/mL]	potency / potentiation of fluconazole (in words)	increase in potentiation of fluconazole (morpholine series, para-fluorophenyl substitution) [fold]	loss in potentiating the fluconazole (analogs of MBX-7591)
O=S(=O)(c1cccs1)N1CCC2(CC1)C[C@@H](CCOc1ccncc1)CCO2 [MBX-8251]	5.28	1.32			
O=C(O)c1cccc(S(=O)(=O)N2CCC3(CC2)CC(CCOc2ccncc2)CCO3)c1 (stereo not drawn) [MBX-7962]	> 92	>92			
O=S(=O)(c1ccc(Cl)s1)N1CCC(Cc2ccc(CN3CCOCC3)cc2)CC1 [MBX-8193]	0.63	0.18			
O=C(c1ccsc1)N1CC(Cc2ccc(COc3ccncc3)cc2)C1 [MBX-8305]	9.1	4.50			
O=C(N1CCC(Cc2ccc(COc3ccncc3)cc2)CC1)C12CC(C1)C2 [MBX-8090]	18.8	13.30			
COc1ccc(S(=O)(=O)N2CCC3(CC2)CC(CCOc2ccncc2)CCO3)cc1 (stereo not drawn) [MBX-7953]	5.58	1.11			
COc1c(F)cccc1S(=O)(=O)N1CCC2(CC1)CC(CCOc1ccncc1)CCO2 (stereo not drawn) [MBX-7958]	> 92	>92			
O=S(=O)(c1ccc(F)cc1)N1CCC(Cc2ccc(CN3CCN4CCC[C@H]4C3)cc2)CC1 [MBX-8668]	11.8	1.47			
O=S(=O)(c1cccc(F)c1)N1CCC(Cc2ccc(CN3CC4CC(C3)O4)cc2)CC1 [MBX-8221]	> 17	>22			
N#Cc1cccc(S(=O)(=O)N2CCC3(CC2)CC(CCOc2ccncc2)CCO3)c1 (stereo not drawn) [MBX-7910]	> 88	22.00			
O=S(=O)(C1CCC1)N1CCC2(CC1)CC(CCOc1ccncc1)CCO2 (stereo not drawn) [MBX-7915]	39.5	49.70	complete loss of activity		
O=C(c1ccsc1)N1CCC(c2ccc(COc3ccncc3)cc2)CC1 [MBX-8066]	1.2	0.90			
O=C(c1cccc(O)c1)N1CCC(Cc2ccc(COc3ccncc3)cc2)CC1 [MBX-7801]	> 16	>16			
O=C(c1ccsc1)N1CC[C@H](Cc2ccc(COc3ccncc3)cc2)C1 [MBX-8432]	4.16	1.51			
O=S(=O)(c1ccsc1)N1CC2(CN(CCOc3ccncc3)C2)C1 [MBX-8241]	> 18	>18			
O=S(=O)(c1ccc(F)cc1)N1CCC(Cc2ccc(COc3ccncc3)cc2)C1 (stereo not drawn) [MBX-8391]	1	0.20			
O=S(=O)(C1CC1)N1CCC2(CC1)CC(CCOc1ccncc1)CCO2 (stereo not drawn) [MBX-7911]	76.1	38.10	complete loss of activity		
O=S(=O)(c1cscn1)N1CCC2(CC1)CC(CCOc1ccncc1)CCO2 (stereo not drawn) [MBX-7960]	42	10.60			
O=S(=O)(c1cncs1)N1CCC2(CC1)CC(CCOc1ccncc1)CCO2 (stereo not drawn) [MBX-7959]	21.2	4.20			
O=S(=O)(NC1CCC(Cc2ccc(CN3CCOCC3)cc2)CC1)c1ccc(F)cc1 (stereo not drawn) [MBX-8283]	> 22	>22			
O=C(NC1CCN(Cc2ccc(COc3ccncc3)cc2)CC1)c1ccsc1 [MBX-8312]	> 20	>20			
O=S(=O)(C1COC1)N1CCC2(CC1)CC(CCOc1ccncc1)CCO2 (stereo not drawn) [MBX-7956]	> 79	>79	complete loss of activity		
